Test results reported in ChEMBL document CHEMBL6121021, “Design and Synthesis of Topoisomerases-Histone Deacetylase Dual Targeted Quinoline-Bridged Hydroxamates as Anticancer Agents” (J Med Chem, 2025).
Active and inactive are the calls of the source. The calls are words filed in the database; no cut-off is given here.

Key:
Histone deacetylase 1 [1] = target: T1, Histone deacetylase 1 (Homo sapiens, UniProt Q13547); assay: Inhibition of HDAC1 (unknown origin) incubated for 48 hrs
Histone deacetylase 1 [2] = target: T1, Histone deacetylase 1; assay: Inhibition of HDAC1 (unknown origin)
[3] = target: T2, Protein deacetylase HDAC6 (Homo sapiens, UniProt Q9UBN7); assay: Inhibition of HDAC6 (unknown origin)
T2 sequence (Q9UBN7 whole entry): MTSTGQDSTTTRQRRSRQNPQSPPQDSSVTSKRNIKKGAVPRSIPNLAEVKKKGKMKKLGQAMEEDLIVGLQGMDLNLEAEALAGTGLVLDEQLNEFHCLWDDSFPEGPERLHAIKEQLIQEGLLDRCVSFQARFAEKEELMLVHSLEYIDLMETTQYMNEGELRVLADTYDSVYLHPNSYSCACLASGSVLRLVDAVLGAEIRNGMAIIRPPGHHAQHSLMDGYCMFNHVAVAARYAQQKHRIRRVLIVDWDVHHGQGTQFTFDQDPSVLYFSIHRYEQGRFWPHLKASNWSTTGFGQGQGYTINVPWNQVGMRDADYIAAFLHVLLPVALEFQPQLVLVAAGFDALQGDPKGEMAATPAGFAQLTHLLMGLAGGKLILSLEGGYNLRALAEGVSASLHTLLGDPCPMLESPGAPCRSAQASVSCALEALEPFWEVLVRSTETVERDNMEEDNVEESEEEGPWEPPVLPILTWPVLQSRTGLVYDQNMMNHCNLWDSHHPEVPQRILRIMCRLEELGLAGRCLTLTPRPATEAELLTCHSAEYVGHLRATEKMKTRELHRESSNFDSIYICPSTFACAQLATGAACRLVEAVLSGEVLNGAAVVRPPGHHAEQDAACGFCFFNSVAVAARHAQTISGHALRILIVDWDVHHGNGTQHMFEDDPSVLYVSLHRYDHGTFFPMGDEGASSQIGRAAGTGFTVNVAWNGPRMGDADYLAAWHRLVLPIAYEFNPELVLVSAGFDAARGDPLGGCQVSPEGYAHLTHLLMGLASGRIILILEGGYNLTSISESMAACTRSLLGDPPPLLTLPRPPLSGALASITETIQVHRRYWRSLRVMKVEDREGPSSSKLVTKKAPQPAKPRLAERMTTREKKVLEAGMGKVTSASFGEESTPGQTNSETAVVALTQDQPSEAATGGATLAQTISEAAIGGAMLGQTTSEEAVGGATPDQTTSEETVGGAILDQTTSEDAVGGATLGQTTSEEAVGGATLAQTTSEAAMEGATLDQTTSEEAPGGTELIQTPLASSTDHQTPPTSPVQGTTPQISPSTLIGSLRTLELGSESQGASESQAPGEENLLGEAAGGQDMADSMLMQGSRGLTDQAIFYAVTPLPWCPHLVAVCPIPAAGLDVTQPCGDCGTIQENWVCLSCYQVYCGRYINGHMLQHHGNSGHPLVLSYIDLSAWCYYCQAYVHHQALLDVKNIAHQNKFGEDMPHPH

NCI-H1299 = assay: cells; type: functional, cell-based; conditions: Homo sapiens, NCI-H1299, 48 h
MDA-MB-231 [4] = assay: cells; type: functional, cell-based; conditions: Homo sapiens, MDA-MB-231, 48 h
MCF7 = assay: cells; type: functional, cell-based; conditions: Homo sapiens, MCF7, 48 h
HT-29 = assay: cells; type: functional, cell-based; conditions: Homo sapiens, HT-29, 48 h
MDA-MB-231 [5] = assay: Anti-cancer activity against human MDA-MB-231 cells assessed as decrease in PCNA level at 5 uM incubated for 48 hrs by immunoblot analysis; type: functional, cell-based
A549 [6] = assay: cells; conditions: Homo sapiens, A549, 48 h
[7] = Antiproliferative activity against human NCI-H1975 cells harboring EGFR T790M mutant incubated for 48 hrs by MTT assay; type: functional, cell-based; conditions: NCI-H1975, 48 h
[8] = Toxicity in athymic nude Crl:NU-Foxn1nu mouse xenografted with human A549 cells assessed as animal survival at 30 mg/kg, po administered twice a week for 1 month; type: organism-based; conditions: in vivo, 730 h, time 1 months
[9] = target: DNA topoisomerase 2-alpha (Homo sapiens, UniProt P11388); assay: Inhibition of human Topo II-alpha-mediated decatenation of kDNA at 100 uM incubated for 30 mins
Supercoiled DNA = assay: Binding affinity to supercoiled DNA (unknown origin) assessed as DNA intercalation measured after 30 mins by gel electrophoresis; type: nucleic-acid assay
Histone deacetylase 1 [10] = target: T1, Histone deacetylase 1; assay: Inhibition of HDAC1 extracted from human A549 nucleus incubated for 1 hr by fluorometric assay; type: cell-free
[11] = target: T2, Protein deacetylase HDAC6; assay: Inhibition of HDAC6 (unknown origin) using acetylated-peptide substrate by fluorometric assay
Histone deacetylase 8 = target: T3, Histone deacetylase 8 (Homo sapiens, UniProt Q9BY41); assay: Inhibition of HDAC8 (unknown origin) by fluorometric assay
T3 sequence (Q9BY41 whole entry): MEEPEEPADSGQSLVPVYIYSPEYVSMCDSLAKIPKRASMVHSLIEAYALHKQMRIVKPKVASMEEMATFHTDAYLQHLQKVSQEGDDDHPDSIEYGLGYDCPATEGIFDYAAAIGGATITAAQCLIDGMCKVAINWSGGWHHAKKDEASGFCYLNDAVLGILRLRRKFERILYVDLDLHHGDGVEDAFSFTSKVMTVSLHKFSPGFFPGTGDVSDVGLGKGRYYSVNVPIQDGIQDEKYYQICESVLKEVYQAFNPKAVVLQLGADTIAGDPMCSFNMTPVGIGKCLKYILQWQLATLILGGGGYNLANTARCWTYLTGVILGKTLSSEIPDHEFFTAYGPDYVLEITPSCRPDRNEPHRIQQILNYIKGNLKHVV

[12] = target: T4, DNA topoisomerase 1 (Homo sapiens) (UniProt P11387); assay: Inhibition of human Topo I-mediated relaxation of supercoiled DNA preincubated for 30 mins followed by proteinase K addition measured after 30 mins by gel electrophoresis; conditions: time 60.0 min
T4 sequence (whole entry): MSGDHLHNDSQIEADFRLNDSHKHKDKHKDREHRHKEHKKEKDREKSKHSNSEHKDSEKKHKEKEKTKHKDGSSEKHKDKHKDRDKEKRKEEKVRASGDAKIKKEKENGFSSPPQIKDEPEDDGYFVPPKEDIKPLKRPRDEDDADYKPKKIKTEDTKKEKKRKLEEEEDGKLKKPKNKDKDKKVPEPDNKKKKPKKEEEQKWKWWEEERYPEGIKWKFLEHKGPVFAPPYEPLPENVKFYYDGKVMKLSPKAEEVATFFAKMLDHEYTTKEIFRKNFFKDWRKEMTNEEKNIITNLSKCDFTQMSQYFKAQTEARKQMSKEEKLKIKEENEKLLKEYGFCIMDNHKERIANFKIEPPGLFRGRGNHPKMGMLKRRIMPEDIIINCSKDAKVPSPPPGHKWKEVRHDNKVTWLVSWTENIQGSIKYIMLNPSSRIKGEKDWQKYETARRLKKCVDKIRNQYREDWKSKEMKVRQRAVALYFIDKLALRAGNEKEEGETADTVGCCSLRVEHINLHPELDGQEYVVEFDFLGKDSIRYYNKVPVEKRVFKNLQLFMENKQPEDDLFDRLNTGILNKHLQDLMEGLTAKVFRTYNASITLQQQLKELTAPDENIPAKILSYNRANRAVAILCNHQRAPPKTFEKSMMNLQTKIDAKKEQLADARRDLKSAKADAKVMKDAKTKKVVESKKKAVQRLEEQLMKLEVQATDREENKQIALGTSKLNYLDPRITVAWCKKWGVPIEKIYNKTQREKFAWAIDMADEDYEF

A549 [13] = assay: Anti-cancer activity against human A549 3D cell culture model assessed as inhibition of 3D culture initiation at sub- IC50 incubated for 21 days with replacement of medium containing compound on every seventh day; type: functional, cell-based; conditions: time 21.0 day
A549 [14] = assay: Anti-cancer activity against human A549 3D cell culture model at sub- IC50 incubated for 17 days with replacement of medium containing compound on every third day; type: functional, cell-based; conditions: time 17.0 day
A549 [15] = assay: Induction of ROS generation in human A549 cells incubated for 48 hrs by DCFH-DA staining based analysis; type: functional, cell-based
A549 [16] = assay: Induction of ROS generation in human A549 cells incubated for 48 hrs by Cell Rox red staining based flow cytometry; type: functional
A549 [17] = assay: Effect on mitochondrial membrane permeability in human A549 cells assessed as decrease in red to green fluorescence ratio at sub-IC50 incubated for 48 hrs by JC-1 staining based analysis; type: functional, cell-based
A549 [18] = assay: Induction of apoptosis in human A549 cells by Annexin-V/PI staining based flow cytometry; type: functional, cell-based
A549 [19] = assay: Induction of cell cycle arrest in human A549 cells assessed as accumulation at G1 phase by PI staining based flow cytometry; type: functional
A549 [20] = assay: Induction of cell cycle arrest in human A549 cells assessed as accumulation at G2/M phase by PI staining based flow cytometry; type: functional

T1 sequence (Q13547 whole entry): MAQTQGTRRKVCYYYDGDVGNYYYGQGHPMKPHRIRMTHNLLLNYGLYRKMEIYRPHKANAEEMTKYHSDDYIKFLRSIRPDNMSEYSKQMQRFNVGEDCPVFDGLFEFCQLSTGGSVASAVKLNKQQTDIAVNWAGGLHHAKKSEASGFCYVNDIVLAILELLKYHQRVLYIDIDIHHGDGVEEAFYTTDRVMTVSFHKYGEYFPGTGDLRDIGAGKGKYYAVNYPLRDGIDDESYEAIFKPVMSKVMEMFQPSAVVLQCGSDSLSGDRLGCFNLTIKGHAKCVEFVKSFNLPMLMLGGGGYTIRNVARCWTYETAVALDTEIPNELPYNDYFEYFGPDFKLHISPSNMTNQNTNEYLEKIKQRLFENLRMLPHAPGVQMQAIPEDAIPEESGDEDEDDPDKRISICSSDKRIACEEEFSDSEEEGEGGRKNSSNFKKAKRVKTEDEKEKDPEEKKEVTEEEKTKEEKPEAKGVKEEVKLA
Sequence of DNA topoisomerase 2-alpha (P11388 whole entry): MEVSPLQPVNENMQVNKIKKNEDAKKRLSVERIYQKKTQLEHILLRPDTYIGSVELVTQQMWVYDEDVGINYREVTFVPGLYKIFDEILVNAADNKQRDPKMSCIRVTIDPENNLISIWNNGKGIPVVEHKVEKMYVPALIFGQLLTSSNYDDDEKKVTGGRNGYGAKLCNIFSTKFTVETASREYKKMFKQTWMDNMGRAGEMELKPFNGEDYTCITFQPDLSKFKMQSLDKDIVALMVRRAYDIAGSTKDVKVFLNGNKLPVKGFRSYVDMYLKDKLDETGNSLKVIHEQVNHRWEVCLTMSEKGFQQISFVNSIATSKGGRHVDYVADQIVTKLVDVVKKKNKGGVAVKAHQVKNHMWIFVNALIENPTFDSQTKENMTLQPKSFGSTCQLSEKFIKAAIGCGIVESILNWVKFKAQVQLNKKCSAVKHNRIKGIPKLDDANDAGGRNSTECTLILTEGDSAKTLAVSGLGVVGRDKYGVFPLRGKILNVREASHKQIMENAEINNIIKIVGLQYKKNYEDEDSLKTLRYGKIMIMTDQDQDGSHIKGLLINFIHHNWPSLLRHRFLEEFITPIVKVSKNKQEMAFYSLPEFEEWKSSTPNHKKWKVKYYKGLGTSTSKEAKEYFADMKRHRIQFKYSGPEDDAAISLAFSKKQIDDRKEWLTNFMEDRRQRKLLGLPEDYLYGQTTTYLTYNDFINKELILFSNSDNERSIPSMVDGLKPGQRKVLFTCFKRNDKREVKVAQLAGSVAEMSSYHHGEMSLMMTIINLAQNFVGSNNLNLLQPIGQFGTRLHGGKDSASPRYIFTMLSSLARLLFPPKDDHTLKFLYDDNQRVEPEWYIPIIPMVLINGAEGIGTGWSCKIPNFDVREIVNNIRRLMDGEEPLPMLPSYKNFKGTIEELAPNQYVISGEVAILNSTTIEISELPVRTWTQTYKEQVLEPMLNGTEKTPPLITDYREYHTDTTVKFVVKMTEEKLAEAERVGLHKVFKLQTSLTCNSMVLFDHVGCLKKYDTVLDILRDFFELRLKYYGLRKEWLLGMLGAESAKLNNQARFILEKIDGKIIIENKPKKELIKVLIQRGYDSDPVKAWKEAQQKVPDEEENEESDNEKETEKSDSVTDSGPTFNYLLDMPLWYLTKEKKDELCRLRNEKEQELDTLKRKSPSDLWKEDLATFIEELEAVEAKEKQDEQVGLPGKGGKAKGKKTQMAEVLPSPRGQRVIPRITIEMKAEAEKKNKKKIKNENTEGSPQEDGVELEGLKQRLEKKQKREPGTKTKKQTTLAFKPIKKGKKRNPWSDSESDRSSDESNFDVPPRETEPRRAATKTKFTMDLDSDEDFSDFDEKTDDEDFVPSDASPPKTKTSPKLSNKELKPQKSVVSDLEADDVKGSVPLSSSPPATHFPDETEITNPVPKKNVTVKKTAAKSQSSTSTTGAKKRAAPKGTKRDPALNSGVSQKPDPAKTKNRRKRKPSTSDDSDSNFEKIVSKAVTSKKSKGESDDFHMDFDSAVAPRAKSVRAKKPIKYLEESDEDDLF

O=C(CCCCCOc1ccc(-c2nc3ccccc3c3cc(-c4ccccc4)nn23)cc1)NO
IC50 (Histone deacetylase 1 [1]): 790 nM

CC[C@@]1(O)C(=O)OCc2c1cc1n(c2=O)Cc2c-1nc1ccccc1c2/C=N\OCCCCCCC(=O)NO
IC50 (Histone deacetylase 1 [2]): 5.26 nM | IC50 [3]: 5.22 nM

CC[C@@]1(O)C(=O)OCc2c1cc1n(c2=O)Cc2cc3ccccc3nc2-1 [CAMPTOTHECIN]
IC50 (NCI-H1299): 5220 nM | IC50 (MDA-MB-231 [4]): 7360 nM | IC50 (MCF7): 5670 nM | IC50 (HT-29): 6870 nM | Activity (MDA-MB-231 [5]): inactive | IC50 (A549 [6]): 6860 nM

O=C(CCCCCCC(=O)Nc1ccccc1)NO [VORINOSTAT]
IC50 [7]: 1030 nM | Activity [8]: Non-toxic | IC50 (A549 [6]): 7760 nM

COc1cc(-c2ccc3cc(OCCCCCC(=O)NO)ccc3n2)cc(OC)c1OC
inhibition [9]: Active | Activity (Supercoiled DNA): inactive | IC50 (Histone deacetylase 1 [10]): 44.1 nM | IC50 [11]: > 500 nM | IC50 (Histone deacetylase 8): > 500 nM | IC50 (NCI-H1299): 3230 nM | IC50 (MDA-MB-231 [4]): 6240 nM | IC50 (MCF7): 5220 nM | IC50 (HT-29): 1900 nM | IC50 (A549 [6]): 1850 nM

COc1ccc(-c2ccc3ccc(OCCCCCC(=O)NO)cc3n2)cc1I
inhibition [9]: Active; Observed As More Active Than Etoposide | inhibition [12]: Active | Activity (Supercoiled DNA): inactive | IC50 (Histone deacetylase 1 [10]): 33.5 nM | IC50 [11]: 47.8 nM | IC50 (Histone deacetylase 8): > 500 nM | IC50 (NCI-H1299): 1980 nM | IC50 (MDA-MB-231 [4]): 1490 nM | IC50 (MCF7): 2870 nM | IC50 (HT-29): 2860 nM | inhibition (A549 [13]): Active | Activity (A549 [14]): Active; Exhibited Potent Effect | Activity (A549 [15]): Active | Activity (A549 [16]): Active | Activity (A549 [17]): Not active; Result Signifies That Cell Death Induced Via Mitochondrial-Independent Pathways | Activity (A549 [18]): Active | Activity (A549 [19]): Active | Activity (A549 [20]): Active | IC50 (A549 [6]): 1770 nM

COc1cc([C@@H]2c3cc4c(cc3[C@@H](O[C@@H]3O[C@@H]5CO[C@@H](C)O[C@H]5[C@H](O)[C@H]3O)[C@H]3COC(=O)[C@H]23)OCO4)cc(OC)c1O [ETOPOSIDE]
IC50 [7]: 1630 nM | Activity [8]: Non-toxic
